Columns and labels:
Assay in all cases: Test B pre-/postemergence plant response
Format in all cases: in vivo
[1] = system: Russian thistle (Salsola iberica); conditions: Preemergence
In short: (§1)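 Visual scoring from 0 (no effect) to 100 (complete control) against untreated controls was done 13 to 15 days after greenhouse treatment. Chemicals were formulated in a surfactant-containing non-phytotoxic solvent and applied to soil preemergence or to 1- to 4-leaf (2-18 cm) plants postemergence.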

[2] = system: bermudagrass (Cynodon dactylon); conditions: for Bermudagrass plant response rating: 8 g ai/ha
In short: as §1

[3] = system: blackgrass (Alopecurus myosuroides); conditions: for Blackgrass plant response rating: 8 g ai/ha
In short: as §1

[4] = system: catchweed bedstraw (Galium aparine); conditions: Preemergence
In short: as §1

[5] = system: cocklebur (Xanthium strumarium); conditions: for Cocklebur plant response rating: 8 g ai/ha
In short: as §1

corn (Zea mays) = conditions: for Corn plant response rating: 8 g ai/ha
In short: as §1

[6] = system: downy bromegrass (Bromus tectorum); conditions: for Bromegrass, Downy plant response rating: 8 g ai/ha
In short: as §1

kochia (Kochia scoparia) = conditions: for Kochia plant response rating: 8 g ai/ha
In short: as §1

[7] = system: lambsquarters (Chenopodium album); conditions: for Lambsquarters plant response rating: 8 g ai/ha
In short: as §1

[8] = system: morningglory (Ipomoea coccinea); conditions: for Morningglory plant response rating: 8 g ai/ha
In short: as §1

soybean (Glycine max) = conditions: for Soybean plant response rating: 8 g ai/ha
In short: as §1

[9] = system: surinam grass (Brachiaria decumbens); conditions: for Surinam Grass plant response rating: 8 g ai/ha
In short: as §1

[10] = system: wheat (Triticum aestivum); conditions: for Wheat plant response rating: 8 g ai/ha
In short: as §1

[11] = system: yellow nutsedge (Cyperus esculentus); conditions: for Nutsedge, Yellow plant response rating: 8 g ai/ha
In short: as §1

[12] = 16 g ai/ha, scale 0 to 100 (0 no effect, 100 complete control)
[13] = 31 g ai/ha, 0 to 100 scale, 0 no effect, 100 complete control
[14] = Postemergence, 16 g ai/ha, scale 0 to 100
[15] = Postemergence, 31 g ai/ha, scale 0 to 100, 0 no effect, 100 complete control
[16] = Postemergence, 62 g ai/ha, scale 0 to 100, 0 no effect, 100 complete control
[17] = Preemergence, 16 g ai/ha, scale 0 to 100 (0 no effect, 100 complete control)
[18] = Preemergence, 31 g ai/ha, 0 to 100 scale, 0 no effect, 100 complete control
[19] = Preemergence, 62 g ai/ha, scale 0 to 100

Compound: COC(=O)Oc1cnn(C)c(=O)c1-n1nc(-c2ccc(Cl)cc2)cc1C [Compound 33]
- Plant response rating, Russian Thistle [1, 12]: 0
- Plant response rating, Russian Thistle [1, 13]: 0
- Plant response rating, Russian Thistle ([1]; 62 g ai/ha, scale 0 to 100): 80
- Russian Thistle plant response rating ([1]; 8 g ai/ha, scale 0 to 100): 0
- Bermudagrass plant response rating ([2]; postemergence, 0-100 scale): 70
- Plant response rating, Bermudagrass [2, 14]: 100
- Plant response rating, Bermudagrass [2, 15]: 100
- Plant response rating, Bermudagrass [2, 16]: 100
- Bermudagrass plant response rating ([2]; Preemergence, scale 0 to 100 (0 no effect, 100 complete control)): 80
- Plant response rating, Bermudagrass [2, 17]: 98
- Plant response rating, Bermudagrass [2, 18]: 100
- Plant response rating, Bermudagrass [2, 19]: 100
- Blackgrass plant response rating ([3]; postemergence, 0-100 scale): 70
- Plant response rating, Blackgrass [3, 14]: 70
- Plant response rating, Blackgrass [3, 15]: 80
- Plant response rating, Blackgrass [3, 16]: 95
- Plant response rating, Blackgrass [3, 17]: 100
- Plant response rating, Blackgrass [3, 18]: 100
- Plant response rating, Blackgrass [3, 19]: 100
- Blackgrass plant response rating ([3]; Preemergence, scale 0 to 100): 60
- Plant response rating, Galium [4, 12]: 0
- Plant response rating, Galium [4, 13]: 0
- Plant response rating, Galium ([4]; 62 g ai/ha, scale 0 to 100): 0
- Galium plant response rating ([4]; 8 g ai/ha, scale 0 to 100): 0
- Cocklebur plant response rating ([5]; postemergence, 0-100 scale): 0
- Plant response rating, Cocklebur [5, 14]: 0
- Plant response rating, Cocklebur [5, 15]: 0
- Plant response rating, Cocklebur [5, 16]: 0
- Plant response rating, Cocklebur [5, 17]: 0
- Plant response rating, Cocklebur [5, 18]: 0
- Cocklebur plant response rating ([5]; Preemergence, scale 0 to 100): 0
- Corn plant response rating (corn (Zea mays); postemergence, 0-100 scale): 80
- Plant response rating, Corn (corn (Zea mays); [14]): 95
- Plant response rating, Corn (corn (Zea mays); [15]): 100
- Plant response rating, Corn (corn (Zea mays); [16]): 100
- Plant response rating, Corn (corn (Zea mays); [17]): 85
- Plant response rating, Corn (corn (Zea mays); [18]): 90
- Plant response rating, Corn (corn (Zea mays); [19]): 95
- Corn plant response rating (corn (Zea mays); Preemergence, scale 0 to 100): 50
- Bromegrass, Downy plant response rating ([6]; postemergence, 0-100 scale): 5
- Plant response rating, Bromegrass, Downy [6, 14]: 50
- Plant response rating, Bromegrass, Downy [6, 15]: 70
- Plant response rating, Bromegrass, Downy [6, 16]: 80
- Plant response rating, Bromegrass, Downy [6, 17]: 0
- Plant response rating, Bromegrass, Downy [6, 18]: 80
- Plant response rating, Bromegrass, Downy [6, 19]: 100
- Bromegrass, Downy plant response rating ([6]; Preemergence, scale 0 to 100): 0
- Kochia plant response rating (kochia (Kochia scoparia); postemergence, 0-100 scale): 0
- Plant response rating, Kochia (kochia (Kochia scoparia); [14]): 0
- Plant response rating, Kochia (kochia (Kochia scoparia); [15]): 0
- Plant response rating, Kochia (kochia (Kochia scoparia); [16]): 0
- Plant response rating, Kochia (kochia (Kochia scoparia); [18]): 0
- Plant response rating, Kochia (kochia (Kochia scoparia); [19]): 0
- Kochia plant response rating (kochia (Kochia scoparia); Preemergence, scale 0 to 100): 0
- Lambsquarters plant response rating ([7]; postemergence, 0-100 scale): 0
- Plant response rating, Lambsquarters [7, 14]: 0
- Plant response rating, Lambsquarters [7, 15]: 0
- Plant response rating, Lambsquarters [7, 16]: 0
- Plant response rating, Lambsquarters [7, 17]: 0
- Plant response rating, Lambsquarters [7, 18]: 0
- Plant response rating, Lambsquarters [7, 19]: 0
- Lambsquarters plant response rating ([7]; Preemergence, scale 0 to 100): 0
- Morningglory plant response rating ([8]; postemergence, 0-100 scale): 0
- Plant response rating, Morningglory [8, 14]: 0
- Plant response rating, Morningglory [8, 15]: 0
- Plant response rating, Morningglory [8, 16]: 0
- Plant response rating, Morningglory [8, 17]: 0
- Plant response rating, Morningglory [8, 18]: 0
- Plant response rating, Morningglory [8, 19]: 0
- Morningglory plant response rating ([8]; Preemergence, scale 0 to 100): 0
- Soybean plant response rating (soybean (Glycine max); postemergence, 0-100 scale): 0
- Plant response rating, Soybean (soybean (Glycine max); [14]): 0
- Plant response rating, Soybean (soybean (Glycine max); [16]): 0
- Plant response rating, Soybean (soybean (Glycine max); [17]): 0
- Plant response rating, Soybean (soybean (Glycine max); [18]): 0
- Plant response rating, Soybean (soybean (Glycine max); [19]): 0
- Soybean plant response rating (soybean (Glycine max); Preemergence, scale 0 to 100): 0
- Surinam Grass plant response rating ([9]; postemergence, 0-100 scale): 85
- Plant response rating, Surinam Grass [9, 14]: 100
- Plant response rating, Surinam Grass [9, 16]: 100
- Plant response rating, Surinam Grass [9, 17]: 90
- Plant response rating, Surinam Grass [9, 18]: 98
- Plant response rating, Surinam Grass [9, 19]: 100
- Surinam Grass plant response rating ([9]; Preemergence, scale 0 to 100): 75
- Wheat plant response rating ([10]; postemergence, 0-100 scale): 20
- Plant response rating, Wheat [10, 14]: 70
- Plant response rating, Wheat [10, 16]: 98
- Plant response rating, Wheat [10, 17]: 0
- Plant response rating, Wheat [10, 18]: 50
- Plant response rating, Wheat [10, 19]: 80
- Wheat plant response rating ([10]; Preemergence, scale 0 to 100): 0
- Nutsedge, Yellow plant response rating ([11]; postemergence, 0-100 scale): 0
- Plant response rating, Nutsedge, Yellow [11, 14]: 0
- Plant response rating, Nutsedge, Yellow [11, 15]: 0
- Plant response rating, Nutsedge, Yellow [11, 16]: 0
- Plant response rating, Nutsedge, Yellow [11, 17]: 0
- Plant response rating, Nutsedge, Yellow [11, 18]: 0
- Plant response rating, Nutsedge, Yellow [11, 19]: 0
- Nutsedge, Yellow plant response rating ([11]; Preemergence, scale 0 to 100): 0
